# Measurements from patent US7829063B2, “Development of molecular imaging probes for carbonic anhydrase-IX using click chemistry” (Siemens Medical Solutions USA, Inc., priority 2007, dated 2010).
# Read-outs that look alike come from different tables or passages of the source.
# Molecular target: T1, CA-IX (Homo sapiens, UniProt Q16790)
# T1 construct: His tag (C); purchased R&D Systems Inc. 2188-CA; host or cells: mouse myeloma cell line NS0
# Experiment: CA-IX combinatorial library screening, competitive fluorescence-based assay with dansylamide (DNSA)
# Format: binding
# Details: sample concentrations 100 nM and 1000 nM, DNSA 200 μM, screening at 1 μM; for inhibition at 1 µM: 1 h
# Method: General. CA-IX human recombinant enzyme was expressed with a C-terminal His tag in a mouse myeloma cell line, NS0 (R&D Systems Inc., catalog number 2188-CA). The human red blood cells were obtained from Research Blood Components, LLC. All absorbance measurements were performed on a SPECTRA MAX M2 plate reader at 25° C. The LC/MS analyses were performed on an Agilent 1100 series LC/MSD (SL) using a 30×2.1 mm Zorbax C8 column with a Phenomenex C18 pre-column. Compound detection was accomplished by electrospray mass spectroscopy in positive selected ion mode (LC/MS-SIM). The elution solvents were acetonitrile and water, contained 0.05% TFA. Nuclear magnetic resonance (NMR) spectra were obtained on a Bruker AMX 300 MHz spectrometer or a Varian 400. 19F NMR spectra were recorded on a Bruker AMX 282.35 MHz or a Varian 400 spectrometer. The mass spectra were recorded on an Agilent 1100 series LC/MSD with electrospray mass spectroscopic detection. Flash column chromatography was performed on Merck silica gel (40-63 μm) using the solvent system indicated. The radiochemical and chemical purities were analyzed by RP-HPLC.
# General Combinatorial Library Screening Protocol for CA-IX
# The CA-IX screening assay was employed for testing libraries derived from the various “anchor” molecules, using ethoxzolamide as a positive control. The assay was performed at a substrate (dansylamide, DNSA) concentration of 200 μM, and sample concentrations of 100 nM and 1000 nM, respectively. A modified competitive fluorescence-based assay (A. Jain, S. G. Huang, G. M. Whitesides, J. Am. Chem. Soc. 1994, 116, 5057) was used to measure CA-IX activity. The enzymatic assay was carried out in a 96-well plate. To the wells, deionized water, 40 μL of phosphate buffer (250 mM, pH 7.4), 2.4 μL of CA-IX (17 μM), and 2 μL or 20 μL of inhibitor (concentration of 100 nM or 1000 nM) were added to achieve a final volume of 180 μL. Reactions were initiated by adding 20 μL DNSA (200 μM) to each well and the plate was incubated at 25° C. for 1 hour. The fluorescence intensities from each well of the plate were then read at 460 nm using a plate reader with an excitation wavelength of 290 nm.
# [1] = Table 1, Libraries 1-3, read-out: In Vitro Binding Assay (Library Screening)
# [2] = Table 2, Libraries 4-7, read-out: In Vitro Binding Assay (Library (Screening))
inhibition at 1 µM [1] [%],inhibition at 1 µM [2] [%],other results,Structure (SMILES)
< 40,,,CC(C)C(C(=O)NCCCN1CCOCC1)n1cc(CNC(=O)c2ccc(S(N)(=O)=O)cc2)nn1 (stereo not shown) [DHK58]
,< 40,,COC(=O)C(NC(=O)[C@H](Cc1ccccc1)n1cc(COc2ccc3nc(S(N)(=O)=O)sc3c2)nn1)C(C)C (stereo partly shown) [DHK-2-60]
< 40,,,NS(=O)(=O)c1nc2ccc(OCc3cn(C4CCN(S(=O)(=O)/C=C/c5ccccc5)CC4)nn3)cc2s1 [DHK143]
,< 40,,CC(C)[C@@H](C(=O)NCc1ccccn1)n1cc(COc2ccc3nc(S(N)(=O)=O)sc3c2)nn1 [DHK-2-35]
,< 40,,CN(Cc1ccccc1)C(=O)[C@H](Cc1ccccc1)n1cc(-c2ccc(S(N)(=O)=O)cc2)nn1 [DHK-2-2]
< 40,,,NS(=O)(=O)c1ccc(-c2cn(C3C(O)C(O)OC3C(O)CO)nn2)cc1 (stereo not shown) [DHK111]
,< 40,,Cn1c(CNC(=O)[C@H](Cc2ccccc2)n2cc(COc3ccc4nc(S(N)(=O)=O)sc4c3)nn2)nc2ccccc21 [DHK-2-73]
,< 40,,NS(=O)(=O)c1nc2ccc(OCc3cn([C@@H](Cc4ccccc4)C(=O)N[C@@H]4c5ccccc5C[C@@H]4O)nn3)cc2s1 [DHK-2-70]
,< 40,,NS(=O)(=O)c1ccc(-c2cn([C@@H](Cc3ccccc3)C(=O)N3CCN(c4ccccn4)CC3)nn2)cc1 [DHK-2-7]
< 40,,,COC(=O)C(Cc1ccc(C(=O)O)cc1)n1cc(COc2ccc3nc(S(N)(=O)=O)sc3c2)nn1 (stereo not shown) [DHK129]
< 40,,,Cc1ccc(C)c(CNC(=O)[C@H](Cc2ccccc2)n2cc(CNC(=O)c3ccc(S(N)(=O)=O)cc3)nn2)c1 [DHK45]
,< 40,,CC(C)[C@@H](C(=O)N1CCN(CCO)CC1)n1cc(-c2ccc(S(N)(=O)=O)cc2)nn1 [DHK185]
,< 40,,CCOC(=O)[C@@H](NC(=O)[C@H](Cc1ccccc1)n1cc(-c2ccc(S(N)(=O)=O)cc2)nn1)C(C)C [DHK-2-9]
< 40,,,NS(=O)(=O)c1ccc(C(=O)NCc2cn(Cn3c(=S)sc4ccccc43)nn2)cc1 [DHK48]
,< 40,,CC(C)[C@@H](C(=O)NCc1ccc(C(F)(F)F)cc1)n1cc(-c2ccc(S(N)(=O)=O)cc2)nn1 [DHK168]
< 40,,,NS(=O)(=O)c1ccc(-c2cn(C3CCN(C(=O)/C=C/c4ccccc4)CC3)nn2)cc1 [DHK82]
,< 40,,CC(C)[C@@H](C(=O)N1CCC(N2CCCC2)CC1)n1cc(-c2ccc(S(N)(=O)=O)cc2)nn1 [DHK188]
,,"In Vitro Binding Assay (Library Screening) (Table 2, Libraries 4-7): √",CCOC(=O)C1CCN(C(=O)[C@H](Cc2ccccc2)n2cc(COc3ccc4nc(S(N)(=O)=O)sc4c3)nn2)CC1 [DHK-2-68]
,< 40,,CC(C)[C@@H](C(=O)N(C)Cc1ccccc1)n1cc(-c2ccc(S(N)(=O)=O)cc2)nn1 [DHK166]
< 40,,,CC(C)C[C@@H](C(=O)NCc1ccccc1)n1cc(CNC(=O)c2ccc(S(N)(=O)=O)cc2)nn1 [DHK41]
< 40,,,NS(=O)(=O)c1ccc(-c2cn(CCN3CCOCC3)nn2)cc1 [DHK5]
< 40,,,CC(C)(C)c1cc(C(=O)Cn2cc(CNC(=O)c3ccc(S(N)(=O)=O)cc3)nn2)cc(C(C)(C)C)c1O [DHK59]
< 40,,,NS(=O)(=O)c1ccc(C(=O)NCc2cn(C(c3ccccc3)[C@@H](OC/C=C/c3ccccc3)c3ccccc3)nn2)cc1 (stereo partly shown) [DHK90]
< 40,,,NS(=O)(=O)c1ccc(-c2cn(-c3cccc(C(=O)NN4CCOCC4)c3)nn2)cc1 [DHK104]
< 40,,,CC(C)[C@@H](C(=O)NC1CCCCC1)n1cc(CNC(=O)c2ccc(S(N)(=O)=O)cc2)nn1 [DHK50]
,< 40,,NS(=O)(=O)c1ccc(-c2cn([C@@H](Cc3ccccc3)C(=O)NCCN3CCN(Cc4ccccc4)CC3)nn2)cc1 [DHK-2-23]
,< 40,,CC(C)[C@@H](C(=O)N1CCN(c2ncccn2)CC1)n1cc(COc2ccc3nc(S(N)(=O)=O)sc3c2)nn1 [DHK-2-28]
,< 40,,CCOC(=O)CCN(Cc1ccco1)C(=O)[C@H](Cc1ccccc1)n1cc(-c2ccc(S(N)(=O)=O)cc2)nn1 [DHK-2-16]
